Measured values as given in ChEMBL document CHEMBL5120801, “Targeting Bromodomain-Selective Inhibitors of BET Proteins in Drug Discovery and Development” (J Med Chem, 2022).

Columns and labels:
MV4-11 [1] = test: Antiproliferative activity against human MV4-11 cells by CCK-8 assay; assay type: functional, cell-based
Interleukin-1 beta = target: T1, Interleukin-1 beta (Mus musculus, UniProt P10749); test: Inhibition of IL-1beta in mouse BMDM cells; assay type: cell-based
T1 sequence (P10749 whole entry): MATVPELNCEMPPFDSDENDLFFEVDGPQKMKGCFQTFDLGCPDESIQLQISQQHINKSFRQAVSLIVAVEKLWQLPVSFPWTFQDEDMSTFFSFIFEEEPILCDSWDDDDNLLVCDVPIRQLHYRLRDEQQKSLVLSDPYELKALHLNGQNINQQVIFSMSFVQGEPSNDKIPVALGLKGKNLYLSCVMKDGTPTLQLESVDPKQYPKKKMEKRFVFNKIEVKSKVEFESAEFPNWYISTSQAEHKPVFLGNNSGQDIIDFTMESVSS

[2] = target: T2, Bromodomain-containing protein 4 (Homo sapiens, UniProt O60885); test: Binding affinity to BRD4-BD2 (unknown origin)
[3] = target: T2, Bromodomain-containing protein 4; test: Binding affinity to BRD4-BD1 (unknown origin)
MV4-11 [4] = test: Antiproliferative activity against human MV4-11 cells by Cell Titer Glo assay; assay type: functional, cell-based

O=c1cc(-c2ccc(O)c(O)c2)oc2c(O)c(O)ccc12
IC50 (MV4-11 [1]): 30200 nM

COc1cc(OC)c2c(=O)[nH]c(-c3cc(C)c(OCCN4CCCC4)c(C)c3)nc2c1
IC50 (Interleukin-1 beta): 2100 nM

CCNC(=O)C1=CC2C(c3cc(S(=O)(=O)CC)ccc3Oc3c(C)cc(F)cc3C)=CN(C)C(=O)C2N1 (stereo not given)
Ki [2]: 1.3 nM | Ki [3]: 79 nM

CC(=O)N1c2ccc(-c3cc[nH]n3)cc2[C@H](Nc2ccc(C#N)cc2)C[C@@H]1C
IC50 (MV4-11 [4]): 8 nM
